According to US20240217957A1, “HETEROCYCLIC COMPOUND AND USE THEREOF” (TAKEDA PHARMACEUTICAL COMPANY LIMITED, priority 2022, published 2024):

The compounds below were run against T1, human OX2 receptor (Homo sapiens, UniProt O43614) (assay: Measurement of orexin type 2 receptor agonist activity (calcium fluorescence, Fluo-4 AM, FDSS)). Conditions: compound at 3 μM; CHO cells forcibly expressing human OX2 receptor; DMSO = 0%, 10 nM orexin A (human) = 100%.
T1 construct: expressed in transfected cells
T1 sequence (O43614 1-444): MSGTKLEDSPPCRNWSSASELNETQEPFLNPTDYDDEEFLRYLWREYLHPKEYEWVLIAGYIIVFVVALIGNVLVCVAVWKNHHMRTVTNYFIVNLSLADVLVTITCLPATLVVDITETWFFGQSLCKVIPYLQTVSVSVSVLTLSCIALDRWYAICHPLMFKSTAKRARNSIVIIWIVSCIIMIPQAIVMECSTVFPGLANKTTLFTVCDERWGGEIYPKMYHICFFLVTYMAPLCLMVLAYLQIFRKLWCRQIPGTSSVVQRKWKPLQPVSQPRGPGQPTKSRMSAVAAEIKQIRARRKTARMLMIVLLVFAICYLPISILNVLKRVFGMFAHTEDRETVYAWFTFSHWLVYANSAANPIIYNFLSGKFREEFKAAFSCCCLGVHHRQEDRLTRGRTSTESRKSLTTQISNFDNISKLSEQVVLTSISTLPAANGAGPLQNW
Type: cell-based
Outline: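 Agonist response is expressed as % of the fluorescence change given by 10 nM human orexin A, with DMSO as 0%, read over 1 min 40 s on FDSS after compound addition. Cells: stable human OX2 (1-444) CHO-K1 clones, dye-loaded with Fluo-4 AM plus probenecid in HEPES-buffered HBSS with 0.1% BSA.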

Row | SMILES | OX2R agonist activity (3 μM, %)
1 | CC1(c2ncc(F)cc2-c2c(F)cccc2F)CC(N2CC[C@H](NS(C)(=O)=O)C2)=NO1 (stereo partly drawn) [Example 122, N-[(3S)-1-{5-[3-(2,6-difluorophenyl)-5-fluoropyridin-2-yl]-5-methyl-4,5-dihydro-1,2-oxazol-3-yl}pyrrolidin-3-yl]methanesulfonamide] | 102%
2 | CN(C)S(=O)(=O)N[C@@H]1CN(C2=NOC(c3ccc(Cl)cc3-c3ncc(F)cc3F)C2)C[C@@H]1F (stereo partly drawn) [Example 123, N′-[(3R,4S)-1-{5-[4-chloro-2-(3,5-difluoropyridin-2-yl)phenyl]-4,5-dihydro-1,2-oxazol-3-yl}-4-fluoropyrrolidin-3-yl]-N,N-dimethylsulfuric diamide] | 100%
3 | Cc1ccc(C2CC(N3C[C@H](F)[C@H](NS(C)(=O)=O)C3)=NO2)c(-c2ncc(F)cc2F)c1 (stereo partly drawn) [Example 124, N-[(3R,4S)-1-{5-[2-(3,5-difluoropyridin-2-yl)-4-methylphenyl]-4,5-dihydro-1,2-oxazol-3-yl}-4-fluoropyrrolidin-3-yl]methanesulfonamide] | 97%
4 | Cc1ccc(C2CC(N3C[C@H](F)[C@H](NS(=O)(=O)N(C)C)C3)=NO2)c(-c2ncc(F)cc2F)c1 (stereo partly drawn) [Example 125, N′-[(3R,4S)-1-{5-[2-(3,5-difluoropyridin-2-yl)-4-methylphenyl]-4,5-dihydro-1,2-oxazol-3-yl}-4-fluoropyrrolidin-3-yl]-N,N-dimethylsulfuric diamide] | 104%
5 | CS(=O)(=O)N[C@@H]1CN(C2=NOC(c3ncc(F)cc3-c3c(F)cccc3F)(C(F)F)C2)CC1(F)F (stereo partly drawn) [Example 126, N-[(3R)-1-{5-(difluoromethyl)-5-[3-(2,6-difluorophenyl)-5-fluoropyridin-2-yl]-4,5-dihydro-1,2-oxazol-3-yl}-4,4-difluoropyrrolidin-3-yl]methanesulfonamide] | 98%
6 | Cc1cc(-c2c(F)cccc2F)c(C2CC(N3C[C@@H](NS(C)(=O)=O)C(F)(F)C3)=NO2)cn1 (stereo partly drawn) [Example 127, N-[(3R)-1-{5-[4-(2,6-difluorophenyl)-6-methylpyridin-3-yl]-4,5-dihydro-1,2-oxazol-3-yl}-4,4-difluoropyrrolidin-3-yl]methanesulfonamide] | 100%
7 | O=S(=O)(CF)N[C@@H]1CN(C2=NO[C@H](c3ncc(F)cc3-c3c(F)cc(F)cc3F)C2)CC1(F)F [Example 128, N-[(3R)-4,4-difluoro-1-{(5S)-5-[5-fluoro-3-(2,4,6-trifluorophenyl)pyridin-2-yl]-4,5-dihydro-1,2-oxazol-3-yl}pyrrolidin-3-yl]-1-fluoromethanesulfonamide] | 105%
8 | CS(=O)(=O)N[C@@H]1CN(C2=NOC(CF)(c3ncc(Cl)cc3-c3c(F)cccc3F)C2)C[C@@H]1F (stereo partly drawn) [Example 129, N-[(3R,4S)-1-{5-[5-chloro-3-(2,6-difluorophenyl)pyridin-2-yl]-5-(fluoromethyl)-4,5-dihydro-1,2-oxazol-3-yl}-4-fluoropyrrolidin-3-yl]methanesulfonamide] | 102%
9 | CCC1(c2ncc(F)cc2-c2c(F)cccc2F)CC(N2C[C@@H](NS(C)(=O)=O)C(F)(F)C2)=NO1 (stereo partly drawn) [Example 130, N-[(3R)-1-{5-[3-(2,6-difluorophenyl)-5-fluoropyridin-2-yl]-5-ethyl-4,5-dihydro-1,2-oxazol-3-yl}-4,4-difluoropyrrolidin-3-yl]methanesulfonamide] | 104%
10 | COCC1(c2ncc(F)cc2-c2c(F)cccc2F)CC(N2C[C@@H](NS(C)(=O)=O)C(F)(F)C2)=NO1 (stereo partly drawn) [Example 131, N-[(3R)-1-{5-[3-(2,6-difluorophenyl)-5-fluoropyridin-2-yl]-5-(methoxymethyl)-4,5-dihydro-1,2-oxazol-3-yl}-4,4-difluoropyrrolidin-3-yl]methanesulfonamide] | 112%
11 | CCS(=O)(=O)N[C@@H]1CN(C2=NOC(COC)(c3ncc(F)cc3-c3c(F)cccc3F)C2)C[C@@H]1F (stereo partly drawn) [Example 132, N-[(3R,4S)-1-{5-[3-(2,6-difluorophenyl)-5-fluoropyridin-2-yl]-5-(methoxymethyl)-4,5-dihydro-1,2-oxazol-3-yl}-4-fluoropyrrolidin-3-yl]ethanesulfonamide] | 110%
12 | CCS(=O)(=O)N[C@@H]1CN(C2=NOC(c3ncc(Cl)cc3-c3c(F)cccc3F)C2)C[C@@H]1F (stereo partly drawn) [Example 133, N-[(3R,4S)-1-{5-[5-chloro-3-(2,6-difluorophenyl)pyridin-2-yl]-4,5-dihydro-1,2-oxazol-3-yl}-4-fluoropyrrolidin-3-yl]ethanesulfonamide] | 107%
13 | Cc1ncc(C2CC(N3C[C@@H](NS(C)(=O)=O)C(F)(F)C3)=NO2)c(-c2c(F)cccc2F)n1 (stereo partly drawn) [Example 134, N-[(3R)-1-{5-[4-(2,6-difluorophenyl)-2-methylpyrimidin-5-yl]-4,5-dihydro-1,2-oxazol-3-yl}-4,4-difluoropyrrolidin-3-yl]methanesulfonamide] | 103%
14 | CS(=O)(=O)N[C@@H]1CN(C2=NOC(CO)(c3ncc(C(F)F)cc3-c3c(F)cccc3F)C2)CC1(F)F (stereo partly drawn) [Example 135, N-[(3R)-1-{5-[5-(difluoromethyl)-3-(2,6-difluorophenyl)pyridin-2-yl]-5-(hydroxymethyl)-4,5-dihydro-1,2-oxazol-3-yl}-4,4-difluoropyrrolidin-3-yl]methanesulfonamide] | 115%
15 | CS(=O)(=O)N[C@@H]1CN(C2=NOC(c3c(F)ccc(F)c3-c3c(F)cccc3F)C2)CC1(F)F (stereo partly drawn) [Example 136, N-{(3R)-4,4-difluoro-1-[5-(2′,3,6,6′-tetrafluoro[1,1'-biphenyl]-2-yl)-4,5-dihydro-1,2-oxazol-3-yl]pyrrolidin-3-yl}methanesulfonamide] | 114%
16 | CS(=O)(=O)N[C@@H]1CN(C2=NOC(c3ccc(F)c(F)c3-c3c(F)cccc3F)C2)C[C@@H]1F (stereo partly drawn) [Example 137, N-{(3R,4S)-4-fluoro-1-[5-(2′,5,6,6′-tetrafluoro[1,1′-biphenyl]-2-yl)-4,5-dihydro-1,2-oxazol-3-yl]pyrrolidin-3-yl}methanesulfonamide] | 102%
17 | CS(=O)(=O)N[C@@H]1CN(C2=NOC(c3c(F)cc(F)cc3-c3ncc(F)cc3F)C2)CC1(F)F (stereo partly drawn) [Example 138, N-[(3R)-1-{5-[2-(3,5-difluoropyridin-2-yl)-4,6-difluorophenyl]-4,5-dihydro-1,2-oxazol-3-yl}-4,4-difluoropyrrolidin-3-yl]methanesulfonamide] | 105%
18 | CS(=O)(=O)N[C@@H]1CN(C2=NOC(c3c(F)cc(F)cc3-c3ncc(F)cc3F)C2)C[C@@H]1F (stereo partly drawn) [Example 139, N-[(3R,4S)-1-{5-[2-(3,5-difluoropyridin-2-yl)-4,6-difluorophenyl]-4,5-dihydro-1,2-oxazol-3-yl}-4-fluoropyrrolidin-3-yl]methanesulfonamide] | 94%
19 | CS(=O)(=O)N[C@@H]1CN(C2=NOC(c3ccc(F)c(F)c3-c3c(F)cccc3F)C2)CC1(F)F (stereo partly drawn) [Example 140, N-{(3R)-4,4-difluoro-1-[5-(2′,5,6,6′-tetrafluoro[1,1′-biphenyl]-2-yl)-4,5-dihydro-1,2-oxazol-3-yl]pyrrolidin-3-yl}methanesulfonamide] | 89%
20 | CS(=O)(=O)N[C@@H]1CN(C2=NOC(c3c(F)cccc3-c3c(F)cccc3F)C2)C[C@@H]1F (stereo partly drawn) [Example 141, N-{(3R,4S)-4-fluoro-1-[5-(2′,3,6′-trifluoro[1,1′-biphenyl]-2-yl)-4,5-dihydro-1,2-oxazol-3-yl]pyrrolidin-3-yl}methanesulfonamide] | 97%
21 | CS(=O)(=O)N[C@@H]1CN(C2=NOC(CO)(c3ncc(Cl)cc3-c3c(F)cccc3F)C2)CC1(F)F (stereo partly drawn) [Example 142, N-[(3R)-1-{5-[5-chloro-3-(2,6-difluorophenyl)pyridin-2-yl]-5-(hydroxymethyl)-4,5-dihydro-1,2-oxazol-3-yl}-4,4-difluoropyrrolidin-3-yl]methanesulfonamide] | 102%
22 | CCS(=O)(=O)N[C@@H]1CN(C2=NOC(c3ncc(Cl)cc3-c3c(F)cccc3F)C2)CC1(F)F (stereo partly drawn) [Example 143, N-[(3R)-1-{5-[5-chloro-3-(2,6-difluorophenyl)pyridin-2-yl]-4,5-dihydro-1,2-oxazol-3-yl}-4,4-difluoropyrrolidin-3-yl]ethanesulfonamide] | 109%
23 | CS(=O)(=O)N[C@@H]1CN(C2=NOC(c3c(F)cc(F)cc3-c3c(F)cccc3F)C2)C[C@@H]1F (stereo partly drawn) [Example 144, N-{(3R,4S)-4-fluoro-1-[5-(2′,3,5,6′-tetrafluoro[1,1′-biphenyl]-2-yl)-4,5-dihydro-1,2-oxazol-3-yl]pyrrolidin-3-yl}methanesulfonamide] | 98%
24 | Cc1cc(F)c(C2CC(N3C[C@@H](NS(C)(=O)=O)C(F)(F)C3)=NO2)c(-c2c(F)cc(F)cc2F)c1 (stereo partly drawn) [Example 145, N-{(3R)-4,4-difluoro-1-[5-(2′,3,4′,6′-tetrafluoro-5-methyl[1,1′-biphenyl]-2-yl)-4,5-dihydro-1,2-oxazol-3-yl]pyrrolidin-3-yl}methanesulfonamide] | 105%
